Test system: Candida albicans
Assay: Fungal load: patient with severe candidiasis (present-tense example)
Format: in vivo, human
Settings: two weeks, before YG Product
Protocol: The following present-tense examples are intended to illustrate and summarize the teachings of the preceding examples that describe actual clinical data with over 100 AIDS and ARC patients.
The candidiasis clears. A dose is administered by one of the following routes: intradermally, subcutaneously, orally, transmucosally, sublingually, or transdermally.

SMILES: OC(Cn1cncn1)(Cn1cncn1)c1ccc(F)cc1F [Fluconazole]
- effect of antifungal treatment alone on severe candidiasis: without effect

Source: US7419776B1, “Method of reducing pathogen load” (priority 1999, dated 2008)
